Measurements from patent US11319299B2, “Substituted carboxamides as inhibitors of WDR5 protein-protein binding” (PROPELLON THERAPEUTICS INC., priority 2016, dated 2022).

Biological target: WDR5 (Homo sapiens (Human), UniProt P61964)
Assay: Surface Plasmon Resonance (SPR) assay, KD and residence time
Type: binding
Conditions: surface plasmon resonance (SPR) assay; read-out: WDR5 binding affinity (KD)

Kd [nM] | Compound
9.8 | CN(C)[C@@H]1CCN(c2cc(F)c(-c3cnc(N4CCOCC4)nc3)cc2NC(=O)c2cn(C)c(=O)cc2C(F)(F)F)C1 [Example 184, N-[4-fluoro-5-(2-morpholin-4-ylpyrimidin-5-yl)-2-[(3R)-3-(dimethylamino)pyrrolidin-1-yl]phenyl]-1-methyl-6-oxo-4-(trifluoromethyl)pyridine-3-carboxamide]
0.429 | C[C@@H]1CN(c2cc(F)c(-c3ccc4c(c3)OCCO4)cc2NC(=O)c2c[nH]c(=O)cc2C(F)(F)F)C[C@H](C)N1C [Example 70, N-[5-(2,3-dihydro-1,4-benzodioxin-6-yl)-4-fluoro-2-[(3R,5S)-3,4,5-trimethylpiperazin-1-yl]phenyl]-6-oxo-4-(trifluoromethyl)-1H-pyridine-3-carboxamide]
0.938 | C[C@@H]1CN(c2cc(F)c(C3=CCN(c4ccccn4)CC3)cc2NC(=O)c2c[nH]c(=O)cc2C(F)(F)F)C[C@H](C)N1C [Example 270, N-[4-fluoro-5-(1-pyridin-2-yl-3,6-dihydro-2H-pyridin-4-yl)-2-[(3R,5S)-3,4,5-trimethylpiperazin-1-yl]phenyl]-6-oxo-4-(trifluoromethyl)-1H-pyridine-3-carboxamide]
2.44 | COc1ccc(-c2cc(NC(=O)c3c[nH]c(=O)cc3C(F)(F)F)c(N3C[C@@H](C)N(C)[C@@H](C)C3)cc2F)cc1 [Example 112, N-[4-fluoro-5-(4-methoxyphenyl)-2-[(3R,5S)-3,4,5-trimethylpiperazin-1-yl]phenyl]-6-oxo-4-(trifluoromethyl)-1H-pyridine-3-carboxamide]
20.6 | C[C@@H]1CN(c2cc(F)c(-c3cnc(N4CCOCC4)nc3)cc2NC(=O)c2cc(Cl)cc(C(F)(F)F)c2)C[C@H](C)N1C [Example 175, 3-chloro-N-[4-fluoro-5-(2-morpholin-4-ylpyrimidin-5-yl)-2-[(3R,5S)-3,4,5-trimethylpiperazin-1-yl]phenyl]-5-(trifluoromethyl)benzamide]
30 | CN(C)[C@@H]1CCN(c2cc(F)c(-c3cnc(N4CCOCC4)nc3)cc2NC(=O)c2cc(Cl)cc(Cl)c2)C1 [Example 168, 3,5-dichloro-N-[4-fluoro-5-(2-morpholin-4-ylpyrimidin-5-yl)-2-[(3R)-3-(dimethylamino)pyrrolidin-1-yl]phenyl]benzamide]
1730 | COc1cccc(C(=O)Nc2cc(-c3cnc(N4CCOCC4)nc3)c(F)cc2N2C[C@@H](C)N(C)[C@@H](C)C2)c1F [Example 110, 2-fluoro-N-[4-fluoro-5-(2-morpholin-4-ylpyrimidin-5-yl)-2-[(3R,5S)-3,4,5-trimethylpiperazin-1-yl]phenyl]-3-methoxybenzamide]

Same assay, conditions: surface plasmon resonance (SPR); read-out: WDR5 binding affinity (KD)

Kd [nM] | Compound
1.95 | C[C@@H]1CN(c2cc(F)c(-c3cnn(C)c3)cc2NC(=O)c2c[nH]c(=O)cc2C(F)(F)F)C[C@H](C)N1C [Example 445, N-[4-fluoro-5-(1-methylpyrazol-4-yl)-2-[(3R,5S)-3,4,5-trimethylpiperazin-1-yl]phenyl]-6-oxo-4-(trifluoromethyl)-1H-pyridine-3-carboxamide]
4.84 | CC1CN(c2cc(F)c(-c3cnc(N4CCOCC4)s3)cc2NC(=O)c2cn(C)c(=O)cc2C(F)F)CCN1C (stereo in doubt) [Example 621, 4-(difluoromethyl)-N-[4-fluoro-5-(2-morpholin-4-yl-1,3-thiazol-5-yl)-2-[(3R)-3,4-dimethylpiperazin-1-yl]phenyl]-1-methyl-6-oxopyridine-3-carboxamide]
0.623 | CC1CN(c2ccc(-c3cc(NC(=O)c4c[nH]c(=O)cc4C(F)F)c(N4C[C@@H](C)N(C)[C@@H](C)C4)cc3F)cn2)CCO1 (stereo in doubt) [Example 510, 4-(difluoromethyl)-N-[4-fluoro-5-[6-[(2R)-2-methylmorpholin-4-yl]pyridin-3-yl]-2-[(3S,5R)-3,4,5-trimethylpiperazin-1-yl]phenyl]-6-oxo-1H-pyridine-3-carboxamide]
0.375 | C[C@@H]1CN(c2cc(F)c(C3=CCCN(c4ncc(C#N)s4)C3)cc2NC(=O)c2c[nH]c(=O)cc2C(F)(F)F)C[C@H](C)N1C [Example 615, N-[5-[1-(5-cyano-1,3-thiazol-2-yl)-3,6-dihydro-2H-pyridin-5-yl]-4-fluoro-2-[(3R,5S)-3,4,5-trimethylpiperazin-1-yl]phenyl]-6-oxo-4-(trifluoromethyl)-1H-pyridine-3-carboxamide]
4.39 | C[C@@H]1CN(c2cc(F)c(-c3ccc4ncn(C)c4c3)cc2NC(=O)c2c[nH]c(=O)cc2C(F)(F)F)C[C@H](C)N1C [Example 676, N-[4-fluoro-5-(3-methylbenzimidazol-5-yl)-2-[(3R,5S)-3,4,5-trimethylpiperazin-1-yl]phenyl]-6-oxo-4-(trifluoromethyl)-1H-pyridine-3-carboxamide]
0.977 | C[C@H]1CN(c2cc(F)c(-c3cnc(N4CCOC[C@@H]4C)nc3)cc2NC(=O)c2cn(C)c(=O)cc2C(F)(F)F)CCN1C (racemic) [Example 608, N-[4-fluoro-2-[(3R)-3,4-dimethylpiperazin-1-yl]-5-[2-[(3R)-3-methylmorpholin-4-yl]pyrimidin-5-yl]phenyl]-1-methyl-6-oxo-4-(trifluoromethyl)pyridine-3-carboxamide]
1.13 | CC1CN(c2cc(F)c(-c3cnc(N4CCOCC4)s3)cc2NC(=O)c2c[nH]c(=O)cc2C(F)(F)F)CCN1C (stereo in doubt) [Example 618, N-[4-fluoro-5-(2-morpholin-4-yl-1,3-thiazol-5-yl)-2-[(3R)-3,4-dimethylpiperazin-1-yl]phenyl]-6-oxo-4-(trifluoromethyl)-1H-pyridine-3-carboxamide]
0.711 | CNC(=O)c1ccc(-c2cc(NC(=O)c3c[nH]c(=O)cc3C(F)F)c(N3CCN(C)C(C)C3)cc2F)cc1F (stereo in doubt) [Example 597, 4-(difluoromethyl)-N-[4-fluoro-5-[3-fluoro-4-(methylcarbamoyl)phenyl]-2-[(3R)-3,4-dimethylpiperazin-1-yl]phenyl]-6-oxo-1H-pyridine-3-carboxamide]
1.8 | C[C@@H]1CN(c2ncc(-c3cc(NC(=O)c4cn(C)c(=O)cc4C(F)(F)F)c(N4CCN(C)[C@@H](C)C4)cc3F)cn2)CCO1 [Example 544, N-[4-fluoro-2-[(3S)-3,4-dimethylpiperazin-1-yl]-5-[2-[(2R)-2-methylmorpholin-4-yl]pyrimidin-5-yl]phenyl]-1-methyl-6-oxo-4-(trifluoromethyl)pyridine-3-carboxamide]
0.095 | C[C@@H]1CN(c2cc(F)c(C3=CCN(c4ncc(CN(C)C)cn4)CC3)cc2NC(=O)c2c[nH]c(=O)cc2C(F)(F)F)C[C@H](C)N1C [Example 405, N-[5-[1-[5-[(dimethylamino)methyl]pyrimidin-2-yl]-3,6-dihydro-2H-pyridin-4-yl]-4-fluoro-2-[(3R,5S)-3,4,5-trimethylpiperazin-1-yl]phenyl]-6-oxo-4-(trifluoromethyl)-1H-pyridine-3-carboxamide]
24.2 | CN1CC[C@@H]2CN(c3cc(F)c(-c4cnc(N5CCOCC5)nc4)cc3NC(=O)c3c[nH]c(=O)cc3C(F)(F)F)C[C@@H]21 (stereo in doubt) [Example 477, N-[4-fluoro-5-(2-morpholin-4-ylpyrimidin-5-yl)-2-[(3aR,6aR)-1-methyl-2,3,3a,4,6,6a-hexahydropyrrolo[2,3-c]pyrrol-5-yl]phenyl]-6-oxo-4-(trifluoromethyl)-1H-pyridine-3-carboxamide]
